Measured values taken from patent publication US4012395A, “Process for preparing thiazolidinone acetic acid derivatives” (Warner-Lambert Company, priority 1974, dated 1977).

Legend:
[1] = Toxicity (general statement); conditions: in vivo
[2] = test system: diuresis of conscious dogs; assay: Diuresis in conscious dogs, intragastric administration; format: in vivo, dog (unanesthetized adult female Beagle); conditions: for maximal achievable effect on the diuresis (urine excretion): 25.0 mg/kg
Procedure: Experiments were carried out in 5 unanesthetized adult female Beagle dogs, weighing 15 to 22 kg, which were trained to lie on a table without fixation. The animals were not episiotomized. A rubber catheter was introduced into the bladder and excreted urine was collected separately for each animal and the volume measured in 30 minute intervals. After a constant urine flow was achieved, test substances were administered by stomach tube. The diuretics were diluted with saline solution so that a constant volume of 25 ml/kg was reached. Three animals received the test substances and two served as controls. The lowest dose of the diuretics administered was 1.56 mg/kg. Dosages were increased by a factor of 2 up to 50 mg/kg.

[3] = test system: rats; conditions: rat, in vivo
[4] = test system: urine excreted by each kidney, mongrel dogs; assay: Diuresis in anesthetized dogs, intravenous administration; format: in vivo, dog (male and female mongrel); conditions: i.v.; for urinary excretion / urinary flow increased to: 32.0 mg/kg; for dose dependency of diuretic effect, r: 2.0 up to 64.0 mg/kg
Procedure: Experiments were performed in male and female mongrel dogs, anesthetized with pentobarbital. The body weight was between 9 and 11 kg. After laparotomy the proximal part of the ureters was canulated and the urine excreted by each kidney collected in periods of 10 minutes. Arterial and venous pressure were recorded throughout the experiment. At the beginning 1.5 ml/kg of a tempered saline solution were infused for one and a half hour. After constant urine-flow was reached, the diuretics were injected into the femoral vein. The initial dose was 2.0 mg/kg which was increased with the factor 2 up to 64.0 mg/kg. Two animals were used for each dose level.

[5] = test system: potassium excretion in dogs; assay: Influence on potassium excretion (clearance experiments); format: in vivo, dog; conditions: anesthetized dogs, with higher amounts of sodium excreted
Procedure: Animals were anesthetized by 30.0 mg/kg pentobarbital intravenously. At the beginning of the experiment one saline solution was infused within 1 hour. In the urine which was collected by using a bladder catheter besides other parameters potassium and sodium concentrations were determined by flame photometry.

[6] = test system: mice; assay: Acute toxicity in mice, intragastric; format: in vivo, mouse; conditions: aqueous solution, within 48 hours
[7] = in vivo; conditions: rat, iv

Row | Structure (SMILES) | acute toxicity (in words) [1] | maximal achievable effect on the diuresis (urine excretion) [2] | dosage up to which no deaths were seen [3] | urinary excretion / urinary flow increased to [4] | dose dependency of diuretic effect, r [4] | increase of potassium excretion, Furosemide versus […] [5] | dosage up to which none of the animals died [6] | LD50 [7] | effect of dose increase on urine excretion ([2]; above 25.0 mg/kg) | diuretic activity compared with 3282 [4]
1 | CN1C(=O)C(N2CCCCC2)SC1=CC(=O)O (stereo not shown) [Example 3282, (Z)-3-Methyl-4-oxo-5N-piperidino-thiazolidin-2-ylidene-acetic acid] | very favorable | 10.9 ml/animal/min | ≥ 1,000 mg/kg | 16 ml/minute per animal | 0.8799 | by far more increased with Furosemide than with 3282 | ≥ 2,250 mg/kg | – | – | –
2 | CCOC(=O)/C=C1\SC(N2CCCCC2)C(=O)N1C (stereo not drawn) [Etozolin, ethyl-3-methyl-4-oxo-5-piperidino-Δ^2,α -thiazolidineacetate] | – | 7.8 ml/animal/min | – | 2.25 ml/minute per animal | 0.5583 | – | – | 56.6 mg/kg | does not result in a further increase of urine excretion | far less active
